{"source": "patent US20260207600A1", "about": "“METHODS OF TREATMENT WITH MYOSIN MODULATOR” (MYOKARDIA, INC., priority 2019, published 2026)", "tested_on": "individuals with symptomatic obstructive hypertrophic cardiomyopathy (oHCM)", "test": "PIONEER-OLE Phase 2 open-label extension study of mavacamten", "type": "in vivo", "experimental": "All subjects were started on a dose of 5 mg QD.\nTo maximize safety, the starting dose will be 5 mg for all subjects. Subjects will return at Week 4 (±4 days) for a plasma PK sample to measure drug levels and to undergo echocardiography to determine LVOT gradient (at rest, after a Valsalva maneuver, and after exercise) and left ventricular ejection fraction (LVEF).\nAfter Week 6, additional study visits will occur at Week 8 (±7 days), Week 12 (±7 days), and every 12 weeks (±7 days) thereafter. Subjects also will be contacted by phone in between clinic visits, at Week 18 and every 12 weeks thereafter. An end of study (EOS) visit will occur 12 weeks (±7 days) after the last administration of study drug. Visits (including the Screening visit which serves as the baseline) will entail recording vital signs, targeted physical examination, ECGs, safety laboratory tests, N-terminal pro b-type natriuretic peptide (NT-proBNP), adverse events (AEs), New York Heart Association (NYHA) functional class, Kansas City Cardiomyopathy Questionnaire (KCCQ) score, and concomitant medications. At Weeks 4, 8, 24, 36, 48, 60, 72, 96, 120, 144, 156/early termination (ET), and 168/EOS, a predose blood sample for assessment of drug concentration will be obtained. A standard TTE (including but not limited to assessment of LVOT gradient at rest and after Valsalva) will be performed at baseline, at Weeks 4, 8, 12, 24, 36, 48, 72, 96, 120, 144, 156/ET, and 168/EOS. In addition, a stress echocardiogram (with assessment of LVOT gradient post-exercise) will also be performed at baseline, Weeks 4, 48, 72, 156/ET, and 168/EOS.\nThe study endpoints include safety, tolerability, and select measures of efficacy using individualized dosing. Key measurements include LVOT gradient, LVEF, NT-proBNP.\n• 1. Frequency and severity of treatment-emergent AEs and SAEs, • 2. Frequency of cardiovascular (CV) death, • 3. Frequency of sudden death, • 4. Frequency of CV hospitalization, • 5. Frequency of heart failure requiring the initiation of oral loop diuretics or the administration of intravenous loop diuretics, • 6. Frequency of myocardial infarction, • 7. Frequency of ventricular arrhythmias (ventricular tachycardia, ventricular fibrillation, ventricular flutter, torsade de pointe), • 8. Frequency of syncope, • 9. Frequency of seizures, • 10. Frequency of stroke, • 11. Frequency of LVEF≤45% as measured by echocardiography, • 12. QT and QTcF intervals over time.\n• 1. Post-exercise, post-Valsalva, and resting LVOT gradient over time, • 2. NYHA functional class over time, • 3. KCCQ scores over time, • 4. NT-proBNP over time, • 5. Frequency of septal reduction therapy.", "key": {"[1]": {"details": "Change from Baseline to Week 48"}}, "note": "“And” between values parts separate entries of the source, which are not always exact repeats. Identical values can stand only once."}
{"compound": "CC(C)n1c(=O)cc(N[C@@H](C)c2ccccc2)[nH]c1=O", "note": "[mavacamten, (S)-3-Isopropyl-6-((1-phenylethyl)amino)pyrimidine-2, 4(1H,3H)-dione]", "values": [{"measurement": "Cardiac-related adverse events (AEs) attributed to study drug", "setting": "48-week period", "result": "no cardiac-related adverse events"}, {"measurement": "E/e′ lateral", "setting": "[1]", "result": "−3.4"}, {"measurement": "NT-proBNP, median", "setting": "[1]", "result": -472, "unit": "pg/mL"}, {"measurement": "e′lat, mean ± SD", "setting": "[1]", "result": "1.6 cm/s and 1.6 ± 1.1 cm/s"}, {"measurement": "IVS", "setting": "Change from Baseline to Week 48, Table 1.1", "result": "−1.5", "unit": "mm"}, {"measurement": "E/e′ lateral", "setting": "Week 12", "result": 9.8}, {"measurement": "Interventricular septal thickness, Change from baseline, mean ± SD", "setting": "Week 12", "result": "−0.7 ± 0.7", "unit": "mm"}, {"measurement": "Interventricular septal thickness, Mean ± SD", "setting": "Week 12", "result": "15.9 ± 2.7", "unit": "mm"}, {"measurement": "LV maximum wall thickness, Change from baseline, mean ± SD", "setting": "Week 12", "result": "−0.8 ± 2.0", "unit": "mm"}, {"measurement": "LV maximum wall thickness, Mean ± SD", "setting": "Week 12", "result": "20.1 ± 2.5", "unit": "mm"}, {"measurement": "LV posterior wall thickness, Change from baseline, mean ± SD", "setting": "Week 12", "result": "0.2 ± 0.8", "unit": "mm"}, {"measurement": "LV posterior wall thickness, Mean ± SD", "setting": "Week 12", "result": "11.9 ± 2.2", "unit": "mm"}, {"measurement": "NT-proBNP, median", "setting": "Week 12", "result": 99, "unit": "pg/mL"}, {"measurement": "Systolic anterior motion of the mitral valve present, %", "setting": "Week 12", "result": "(46.2) %"}, {"measurement": "e′lat, mean ± SD", "setting": "Week 12", "result": "8.4 ± 2.3", "unit": "cm/s"}, {"measurement": "IVS", "setting": "Week 12, Table 1.1", "result": 16.0, "unit": "mm"}, {"measurement": "E/e′ lateral", "setting": "Week 24", "result": 10.2}, {"measurement": "Interventricular septal thickness, Change from baseline, mean ± SD", "setting": "Week 24", "result": "−0.7 ± 1.1", "unit": "mm"}, {"measurement": "Interventricular septal thickness, Mean ± SD", "setting": "Week 24", "result": "15.8 ± 2.7", "unit": "mm"}, {"measurement": "LV maximum wall thickness, Change from baseline, mean ± SD", "setting": "Week 24", "result": "−1.8 ± 1.8", "unit": "mm"}, {"measurement": "LV maximum wall thickness, Mean ± SD", "setting": "Week 24", "result": "19.1 ± 2.4", "unit": "mm"}, {"measurement": "LV posterior wall thickness, Change from baseline, mean ± SD", "setting": "Week 24", "result": "0.2 ± 0.9", "unit": "mm"}, {"measurement": "LV posterior wall thickness, Mean ± SD", "setting": "Week 24", "result": "11.8 ± 2.0", "unit": "mm"}, {"measurement": "NT-proBNP, median", "setting": "Week 24", "result": 93, "unit": "pg/mL"}, {"measurement": "Systolic anterior motion of the mitral valve present, %", "setting": "Week 24", "result": "(46.2) %"}, {"measurement": "e′lat, mean ± SD", "setting": "Week 24", "result": "7.9 ± 2.2", "unit": "cm/s"}, {"measurement": "IVS", "setting": "Week 24, Table 1.1", "result": 15.8, "unit": "mm"}, {"measurement": "E/e′ lateral", "setting": "Week 36", "result": 8.5}, {"measurement": "Interventricular septal thickness, Change from baseline, mean ± SD", "setting": "Week 36", "result": "−1.2 ± 1.7", "unit": "mm"}, {"measurement": "Interventricular septal thickness, Mean ± SD", "setting": "Week 36", "result": "15.4 ± 2.7", "unit": "mm"}, {"measurement": "LV maximum wall thickness, Change from baseline, mean ± SD", "setting": "Week 36", "result": "−1.8 ± 1.9", "unit": "mm"}, {"measurement": "LV maximum wall thickness, Mean ± SD", "setting": "Week 36", "result": "19.0 ± 2.2", "unit": "mm"}, {"measurement": "LV posterior wall thickness, Change from baseline, mean ± SD", "setting": "Week 36", "result": "0.0 ± 1.5", "unit": "mm"}, {"measurement": "LV posterior wall thickness, Mean ± SD", "setting": "Week 36", "result": "11.7 ± 1.7", "unit": "mm"}, {"measurement": "NT-proBNP, median", "setting": "Week 36", "result": 168, "unit": "pg/mL"}, {"measurement": "Systolic anterior motion of the mitral valve present, %", "setting": "Week 36", "result": "(58.3) %"}, {"measurement": "e′lat, mean ± SD", "setting": "Week 36", "result": "8.7 ± 2.8", "unit": "cm/s"}, {"measurement": "IVS", "setting": "Week 36, Table 1.1", "result": 15.4, "unit": "mm"}, {"measurement": "E/e′ lateral", "setting": "Week 48", "result": 9.1}, {"measurement": "Interventricular septal thickness, Change from baseline, mean ± SD", "setting": "Week 48", "result": "−1.2 ± 2.3", "unit": "mm"}, {"measurement": "Interventricular septal thickness, Mean ± SD", "setting": "Week 48", "result": "15.5 ± 2.0", "unit": "mm"}, {"measurement": "LV maximum wall thickness, Change from baseline, mean ± SD", "setting": "Week 48", "result": "−1.4 ± 2.2", "unit": "mm"}, {"measurement": "LV maximum wall thickness, Mean ± SD", "setting": "Week 48", "result": "19.4 ± 2.7", "unit": "mm"}, {"measurement": "LV posterior wall thickness, Change from baseline, mean ± SD", "setting": "Week 48", "result": "−0.5 ± 1.9", "unit": "mm"}, {"measurement": "LV posterior wall thickness, Mean ± SD", "setting": "Week 48", "result": "11.1 ± 1.9", "unit": "mm"}, {"measurement": "NT-proBNP, median", "setting": "Week 48", "result": 137, "unit": "pg/mL"}, {"measurement": "Systolic anterior motion of the mitral valve present, %", "setting": "Week 48", "result": "(33.3) %"}, {"measurement": "Valsalva LVOT gradient, mean change", "setting": "Week 48", "result": "−66.0", "unit": "mm Hg"}, {"measurement": "e′lat, mean ± SD", "setting": "Week 48", "result": "8.0 ± 1.6", "unit": "cm/s"}, {"measurement": "mean resting LVOT gradient", "setting": "Week 48", "result": 14.0, "unit": "mm Hg"}, {"measurement": "patients achieving a post-exercise LVOT gradient<30 mm Hg", "setting": "Week 48", "result": "Five"}, {"measurement": "post-exercise LVOT gradient, mean change", "setting": "Week 48", "result": "−85.1", "unit": "mm Hg"}, {"measurement": "resting LVOT gradient for all subjects", "setting": "Week 48", "result": "below 50 mmHg"}, {"measurement": "subjects achieving asymptomatic status (NYHA Class I)", "setting": "Week 48", "result": "nine out of twelve"}, {"measurement": "subjects with resting LVOT gradient below the 30 mmHg threshold", "setting": "Week 48", "result": "11 of 12"}, {"measurement": "IVS", "setting": "Week 48, Table 1.1", "result": "15 mm and 15.3 mm"}, {"measurement": "Interventricular septal thickness, Change from baseline, mean ± SD", "setting": "Week 48, listed as Mavacamten", "result": "−1.2", "unit": "mm"}, {"measurement": "LV maximum wall thickness, Change from baseline, mean ± SD", "setting": "Week 48, listed as Mavacamten", "result": "−1.4", "unit": "mm"}, {"measurement": "KCCQ mean score", "setting": "Week 48, scores range 0-100", "result": 87.3}, {"measurement": "LVEF for all patients", "setting": "all timepoints throughout the study", "result": "above 50%"}, {"measurement": "resting LVOT gradient, mean change", "setting": "baseline to Week 48", "result": "−52.7", "unit": "mm Hg"}, {"measurement": "Number of AEs considered potentially related to study drug", "setting": "in 3 subjects", "result": 8}, {"measurement": "number of SAEs", "setting": "in 3 subjects, not cardiovascular, not related to study drug", "result": 4}, {"measurement": "Number of AEs", "setting": "most mild or moderate, and transient", "result": 64}, {"measurement": "Tolerability", "setting": "one-year treatment period", "result": "well tolerated"}]}
